The structures appear in SMILES notation.

The target in the test is T1, hNKCC1 (NT17, 3xFlag-YFP-tagged human NKCC1) (Homo sapiens, UniProt P55011).
T1 construct: gene SLC12A2; full-length human NKCC1 from synthetic cDNA with 262 silent mutations; N-terminal 3xFlag and YFP (mVenus) tags kept; pcDNA3.1-neo, stably expressed in HEK-293 cells
T1 sequence (P55011 1-1212): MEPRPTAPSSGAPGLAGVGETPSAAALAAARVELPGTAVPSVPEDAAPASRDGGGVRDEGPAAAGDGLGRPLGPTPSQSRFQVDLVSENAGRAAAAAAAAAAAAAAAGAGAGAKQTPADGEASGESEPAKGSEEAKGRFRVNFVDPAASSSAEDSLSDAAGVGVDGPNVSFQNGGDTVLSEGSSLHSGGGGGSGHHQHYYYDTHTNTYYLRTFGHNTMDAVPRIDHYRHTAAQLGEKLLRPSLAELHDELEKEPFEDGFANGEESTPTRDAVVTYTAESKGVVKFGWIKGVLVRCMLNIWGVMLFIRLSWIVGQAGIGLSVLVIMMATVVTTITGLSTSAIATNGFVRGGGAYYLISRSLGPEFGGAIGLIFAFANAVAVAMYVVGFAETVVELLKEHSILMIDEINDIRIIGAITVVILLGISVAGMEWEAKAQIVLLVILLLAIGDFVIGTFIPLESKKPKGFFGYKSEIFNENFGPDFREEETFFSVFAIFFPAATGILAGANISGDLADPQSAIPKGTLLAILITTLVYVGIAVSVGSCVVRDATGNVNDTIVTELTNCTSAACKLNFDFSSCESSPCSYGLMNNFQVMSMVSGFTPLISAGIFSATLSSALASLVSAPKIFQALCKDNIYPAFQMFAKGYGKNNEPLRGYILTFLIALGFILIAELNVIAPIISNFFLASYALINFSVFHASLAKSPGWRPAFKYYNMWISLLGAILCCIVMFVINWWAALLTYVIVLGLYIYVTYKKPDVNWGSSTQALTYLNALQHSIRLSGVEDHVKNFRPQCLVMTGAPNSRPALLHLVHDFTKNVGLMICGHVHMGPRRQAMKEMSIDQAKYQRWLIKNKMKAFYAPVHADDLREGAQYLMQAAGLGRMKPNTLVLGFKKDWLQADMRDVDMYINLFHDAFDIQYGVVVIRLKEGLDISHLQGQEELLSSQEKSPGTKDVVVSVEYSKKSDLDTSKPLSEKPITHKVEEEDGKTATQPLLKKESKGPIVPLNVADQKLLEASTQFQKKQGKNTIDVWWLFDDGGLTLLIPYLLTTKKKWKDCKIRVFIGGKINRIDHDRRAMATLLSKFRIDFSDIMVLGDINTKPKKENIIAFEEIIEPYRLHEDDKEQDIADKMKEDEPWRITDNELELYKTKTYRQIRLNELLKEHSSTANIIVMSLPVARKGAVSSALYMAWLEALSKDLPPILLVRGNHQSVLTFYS
The test is described as follows: influx inhibition in transfected HEK-293 cells, single-site fit. It counts as cell-based. As to conditions: read-out: Ki (bumet).

In the case of `CCCCNc1cc(C(=O)O)cc(S(N)(=O)=O)c1Oc1ccccc1` [bumetanide], the Ki turned out to be 460 ± 100 nM.

Usually Ki stands for a measure of affinity in units of concentration, obtained from inhibition or displacement.

The values are drawn from paper PMC3855340, “Functional Expression of Human NKCC1 from a Synthetic Cassette-Based cDNA: Introduction of Extracellular Epitope Tags and Removal of Cysteines” (PLoS ONE, 2013).
